{"source": "patent US5346693A", "about": "“Depigmenting cosmetic or dermatological composition containing arbutoside derivatives” (L'Oreal, priority 1991, dated 1994)", "origin": "cited, not measured here", "tested_on": "melanocyte"}
{"smiles": "Oc1ccc(O)cc1", "note": "[hydroquinone]", "values": [{"measurement": "cytotoxicity to the melanocyte", "result": "cytotoxic to the melanocyte"}]}
